Experiments:
[1] = test system: Rabbit Psoas myofibrils (skeletal myosin ATPase); test: Myofibril ATPase assay, rabbit psoas (skeletal) myofibrils; assay type: biochemical; settings: Y75 value (no ‡ mark); rabbit psoas myofibrils
Procedure: (§1) Example 1. Myofibril ATPase Assay
(§2) Myofibril ATPase assays are known in the art to be useful in evaluating small molecules for the treatment of HCM and other cardiac indications. Myosin ATPase activity is assessed by using a coupled reaction system, in which ADP generated by the myosin ATPase function is coupled to the disappearance of NADH through the pyruvate kinase/lactate dehydrogenase (PK-LDH) system. ATPase activity produces ADP, which is used as a substrate for PK to produce pyruvate and regenerate ATP. The pyruvate is then used as a substrate by LDH to oxidize NADH to NAD+. The rate of the reaction is monitored through the time-dependent disappearance of NADH using absorbance at 340 nm, which, when the couple system is in stoichiometric excess, is directly correlated to the ATPase activity of the myosin. Inhibition of ATPase activity by the assayed compounds is indicated by a reduced rate of NADH loss, relative to vehicle-treated controls, over the experimental time window. Activation of ATPase activity by the assayed compounds is indicated by an increased rate of NADH loss, relative to vehicle-treated controls, over the experimental time window. Rabbit Psoas, Porcine atria, and Porcine ventricle are the primary sources of myofibril material.
(§3) Materials: The following stock solutions and reagents were used in the Myofibril ATPase Assay:
(§4) Stock Solutions of pCa buffer. Combine PIPES, CaCl2, and EGTA solutions with water. Adjust pH to 7.0 and bring final volume to 100 mL.
(§5) Buffer A & Buffer B. Prepare buffers A and B according to the table below.
(§6) Myofibril ATPase Assay Procedure: BSA, ATP, NADH, PEP, and DTT solutions were thawed at room temperature, then transferred to ice. Pellet-frozen myofibrils were transferred with approximately twice the required volume into a sufficiently large tube and capped. Myofibrils were thawed by rolling in a water bath for approximately 15 min at room temperature and cooled on ice. Buffers A and B were prepared by adjusting volumes as necessary for required number of wells and stored on ice. 0.5 μL of the compounds to be assayed were added into wells. 25 μL of Buffer A was dispensed into the wells, followed by 25 μL of Buffer B. The wells were measured for absorbance at 340 nm, using a kinetic protocol in which the wells are read every 1.5-2 min for 75 min. Assay data analysis was performed using a python script that filtered the raw data to retain those points falling between a starting and ending time and between a maximum and minimum absorbance, then used the filtered time-domain 340 nm absorbance data in each well to calculate a slope via linear regression analysis in units of mAU/min. Compound slopes were normalized between 100% and 0% activity, where 100% represented the slope of wells containing only compound vehicle, and fit to a 4-parameter logistic model. In addition to the fit parameters, the EC25% values were calculated, relative to the 100% normalized value. Additionally, the Y125 values were calculated for compounds that increased myosin ATP-ase activity. Fit parameters, calculated effective concentrations, filtered raw data, and calculated slopes were exported, in addition to compound-specific graphs of normalized ATPase activity versus concentration in μM. Each value reported in Table 5, Table 6, and Table 7 is either a Y75 value or a Y125 value. Values without a double cross sign, ‡, are Y75 values, which reflect the concentration required to reduce myosin ATP-ase activity by 25% (e.g., Y-axis activity value is 75% of initial value), relative to myosin ATP-ase activity in the absence of exogenous compound.
Skeletal Myofibril Isolation:
(§7) Myofibrils from various animals and tissue types were acquired from a variety of sources: rabbit psoas muscle was purchased from Pel-Freez Biologicals (Rogers, AR) and porcine cardiac muscle was purchased from Exemplar Genetics. All myofibrils were prepared using a method based upon those described in Herrmann et al. (1993) and summarized here. […]

[2] = test system: Porcine atria myofibrils (atrial myosin ATPase); test: Myofibril ATPase assay, porcine atria myofibrils; assay type: biochemical; settings: Y75 value (no ‡ mark); porcine atria myofibrils
Procedure: as §1, §2, §3, §4, §5, §6, §7

[3] = molecular target: T1, Porcine ventricle myofibrils (ventricular myosin ATPase) (Sus scrofa, UniProt P79293); test: Myofibril ATPase assay, porcine ventricle myofibrils; assay type: biochemical, porcine (Yucatan minipigs); settings: Y75 value (no ‡ mark); porcine ventricle myofibrils
T1 construct: Myofibrils from porcine cardiac muscle was isolated from the left ventricle of Yucatan minipigs; tissue Exemplar Genetics; host or cells: left ventricle of Yucatan minipigs, myofibrils prepared in house
Procedure: as §1, §2, §3, §4, §5, §6
Cardiac Myofibril Isolation:
Myofibrils from porcine cardiac muscle was isolated from the left ventricle of Yucatan minipigs. Myofibrils were prepared using a method based upon those described in Herrmann et al. (1993) and summarized here. […]

T1 sequence (P79293 whole entry): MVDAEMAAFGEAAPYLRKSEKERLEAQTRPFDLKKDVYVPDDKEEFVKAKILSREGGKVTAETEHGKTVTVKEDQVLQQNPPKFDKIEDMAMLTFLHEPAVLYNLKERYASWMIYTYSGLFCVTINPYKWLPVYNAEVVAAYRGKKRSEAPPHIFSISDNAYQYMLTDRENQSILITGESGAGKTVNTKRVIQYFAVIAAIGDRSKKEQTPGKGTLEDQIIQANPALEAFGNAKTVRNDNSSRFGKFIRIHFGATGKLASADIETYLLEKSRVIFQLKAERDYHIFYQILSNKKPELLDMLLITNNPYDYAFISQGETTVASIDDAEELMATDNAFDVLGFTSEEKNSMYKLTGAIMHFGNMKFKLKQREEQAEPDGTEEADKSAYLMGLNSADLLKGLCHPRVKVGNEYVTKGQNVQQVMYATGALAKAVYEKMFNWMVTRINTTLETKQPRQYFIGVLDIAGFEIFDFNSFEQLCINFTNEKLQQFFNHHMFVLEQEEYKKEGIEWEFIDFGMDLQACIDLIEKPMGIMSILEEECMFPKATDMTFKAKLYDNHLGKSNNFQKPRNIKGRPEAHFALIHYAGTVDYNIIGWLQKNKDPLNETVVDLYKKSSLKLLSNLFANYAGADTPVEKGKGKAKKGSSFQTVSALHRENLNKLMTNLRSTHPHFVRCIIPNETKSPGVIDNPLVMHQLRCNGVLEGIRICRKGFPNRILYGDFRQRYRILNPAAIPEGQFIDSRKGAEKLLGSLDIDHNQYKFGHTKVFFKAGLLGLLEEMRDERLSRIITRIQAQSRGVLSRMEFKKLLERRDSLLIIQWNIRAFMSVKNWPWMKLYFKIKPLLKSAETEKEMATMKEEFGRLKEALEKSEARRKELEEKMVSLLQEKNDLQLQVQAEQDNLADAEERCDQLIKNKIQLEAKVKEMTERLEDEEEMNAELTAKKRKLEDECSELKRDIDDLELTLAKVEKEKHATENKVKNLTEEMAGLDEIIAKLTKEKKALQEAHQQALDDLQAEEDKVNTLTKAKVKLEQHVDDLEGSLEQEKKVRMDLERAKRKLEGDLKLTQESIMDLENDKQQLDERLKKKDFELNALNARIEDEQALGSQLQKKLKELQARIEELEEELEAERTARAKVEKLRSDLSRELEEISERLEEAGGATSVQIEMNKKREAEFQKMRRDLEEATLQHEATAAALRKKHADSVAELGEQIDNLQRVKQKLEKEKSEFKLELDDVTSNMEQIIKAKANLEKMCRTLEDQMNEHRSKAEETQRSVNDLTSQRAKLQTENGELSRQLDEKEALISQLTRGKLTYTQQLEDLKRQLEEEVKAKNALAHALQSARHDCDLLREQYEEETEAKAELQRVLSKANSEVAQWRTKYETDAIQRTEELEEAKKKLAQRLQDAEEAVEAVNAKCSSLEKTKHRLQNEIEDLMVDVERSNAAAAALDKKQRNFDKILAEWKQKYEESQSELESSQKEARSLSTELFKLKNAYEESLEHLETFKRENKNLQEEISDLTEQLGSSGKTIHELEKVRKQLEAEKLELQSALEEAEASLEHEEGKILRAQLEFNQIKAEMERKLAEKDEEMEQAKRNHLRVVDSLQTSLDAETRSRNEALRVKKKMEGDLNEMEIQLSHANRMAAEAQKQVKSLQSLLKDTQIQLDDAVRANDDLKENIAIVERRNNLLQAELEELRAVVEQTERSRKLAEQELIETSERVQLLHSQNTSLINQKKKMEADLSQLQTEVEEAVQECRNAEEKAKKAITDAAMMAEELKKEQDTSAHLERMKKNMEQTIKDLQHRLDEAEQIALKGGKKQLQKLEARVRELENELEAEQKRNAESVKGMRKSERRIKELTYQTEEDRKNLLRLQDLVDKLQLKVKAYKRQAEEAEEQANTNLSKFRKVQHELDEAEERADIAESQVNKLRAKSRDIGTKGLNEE

Compound	Skeletal EC25 [1]	Atrial EC25 [2]	Ventricular EC25 [3]
Cc1nc(C#N)cnc1[C@@H](C)NC(=O)Cc1cc2cc(F)c(F)cc2[nH]c1=O (single isomer, unassigned) [compound 5]	3.60 µM	1.45 µM	4.13 µM
Cc1nc(C#N)cnc1[C@H](C)NC(=O)Cc1cc2cc(F)c(F)cc2[nH]c1=O (single isomer, unassigned) [compound 6]	0.30 µM	0.81 µM	0.95 µM
N#Cc1cnc2c(c1)CC[C@H]2NC(=O)Cc1cc2c(F)c(F)ccc2[nH]c1=O (single isomer, unassigned) [compound 7]	0.81 µM	3.80 µM	1.27 µM
N#Cc1cnc2c(c1)CC[C@@H]2NC(=O)Cc1cc2c(F)c(F)ccc2[nH]c1=O (single isomer, unassigned) [compound 8]	100.00 µM	100.00 µM	100.00 µM
C[C@@H](NC(=O)Cc1cc2c(F)c(F)ccc2[nH]c1=O)c1cnc(C#N)cn1 (single isomer, unassigned) [compound 11]	0.07 µM	0.05 µM	0.15 µM
C[C@H](NC(=O)Cc1cc2c(F)c(F)ccc2[nH]c1=O)c1cnc(C#N)cn1 (single isomer, unassigned) [compound 12]	0.03 µM	0.03 µM	0.11 µM
N#Cc1cnc2c(c1)OC[C@H]2NC(=O)Cc1cc2c(F)c(F)ccc2[nH]c1=O (single isomer, unassigned) [compound 13]	0.05 µM	0.32 µM	0.09 µM
N#Cc1cnc2c(c1)OC[C@@H]2NC(=O)Cc1cc2c(F)c(F)ccc2[nH]c1=O (single isomer, unassigned) [compound 14]	0.07 µM	0.21 µM	0.34 µM
C[C@H](NC(=O)[C@@H](C)c1c(C(F)(F)F)c2cc(F)ccc2[nH]c1=O)c1ccc(F)cc1F (single isomer, unassigned) [compound 57]	0.07 µM	0.15 µM	100.00 µM
C[C@H](NC(=O)[C@H](C)c1c(C(F)(F)F)c2cc(F)ccc2[nH]c1=O)c1ccc(F)cc1F (single isomer, unassigned) [compound 58]	0.15 µM	0.06 µM	1.32 µM
Cc1c(CC(=O)N[C@H]2COc3cc(C#N)cc(F)c32)c(=O)[nH]c2ccc(F)c(C#N)c12 (single isomer, unassigned) [compound 60]	0.27 µM	0.05 µM	0.62 µM
O=C(Cc1cc2c(F)c(F)ccc2[nH]c1=O)N[C@@H]1COc2ncccc21 (single isomer, unassigned) [compound 63]	1.55 µM	0.42 µM	62.72 µM
O=C(Cc1cc2c(F)c(F)ccc2[nH]c1=O)N[C@H]1COc2ncccc21 (single isomer, unassigned) [compound 64]	83.26 µM	100.00 µM	100.00 µM
Cc1c(O)ccc2[nH]c(=O)c(CC(=O)N[C@H](C)c3ncc(F)cc3F)cc12 (single isomer, unassigned) [compound 77]	47.84 µM	100.00 µM	100.00 µM
Cc1c(O)ccc2[nH]c(=O)c(CC(=O)N[C@@H](C)c3ncc(F)cc3F)cc12 (single isomer, unassigned) [compound 78]	6.60 µM	7.08 µM	100.00 µM
COc1ccc2[nH]c(=O)c(CC(=O)N[C@H](C)c3ncc(F)cc3F)cc2c1C (single isomer, unassigned) [compound 79]	100.00 µM	100.00 µM	100.00 µM
COc1ccc2[nH]c(=O)c(CC(=O)N[C@@H](C)c3ncc(F)cc3F)cc2c1C (single isomer, unassigned) [compound 80]	18.54 µM	100.00 µM	100.00 µM
C[C@H](NC(=O)[C@H](C)c1cc2c(Cl)c(O)ccc2[nH]c1=O)c1ccc(F)cc1F (single isomer, unassigned) [compound 86]	100.00 µM	100.00 µM	100.00 µM
C[C@H](NC(=O)[C@@H](C)c1cc2c(Cl)c(O)ccc2[nH]c1=O)c1ccc(F)cc1F (single isomer, unassigned) [compound 88]	74.46 µM	83.97 µM	88.39 µM

Now from value to molecule:

Skeletal EC25 [1]	Atrial EC25 [2]	Ventricular EC25 [3]	Compound
0.04 µM	0.05 µM	0.32 µM	Cc1c(CC(=O)N[C@H](CO)c2ccc(F)cc2F)c(=O)[nH]c2cccc(C#N)c12 (single isomer, unassigned) [compound 89]
1.26 µM	23.51 µM	100.00 µM	Cc1c(CC(=O)N[C@@H](CO)c2ccc(F)cc2F)c(=O)[nH]c2cccc(C#N)c12 (single isomer, unassigned) [compound 90]
0.23 µM	0.19 µM	5.34 µM	C[C@H](NC(=O)[C@@H](C)c1c(C(F)(F)F)c2c(F)cccc2[nH]c1=O)c1ccc(F)cc1F (single isomer, unassigned) [compound 97]
0.06 µM	0.53 µM	4.12 µM	C[C@H](NC(=O)[C@H](C)c1c(C(F)(F)F)c2c(F)cccc2[nH]c1=O)c1ccc(F)cc1F (single isomer, unassigned) [compound 98]
0.09 µM	0.13 µM	100.00 µM	C[C@H](NC(=O)[C@@H](C)c1c(C(F)(F)F)c2cc(F)ccc2[nH]c1=O)c1ccc(F)cc1F (single isomer, unassigned) [compound 99]
0.04 µM	0.06 µM	0.69 µM	C[C@H](NC(=O)[C@H](C)c1c(C(F)(F)F)c2cc(F)ccc2[nH]c1=O)c1ccc(F)cc1F (single isomer, unassigned) [compound 100]
3.90 µM	100.00 µM	100.00 µM	C[C@H](NC(=O)[C@@H](C)c1cc2c(F)cccc2[nH]c1=O)c1ccc(F)cc1F (single isomer, unassigned) [compound 102]
1.64 µM	1.13 µM	100.00 µM	C[C@H](NC(=O)[C@H](C)c1cc2c(F)cccc2[nH]c1=O)c1ccc(F)cc1F (single isomer, unassigned) [compound 103]
0.05 µM	0.04 µM	0.28 µM	Cc1c([C@@H](C)C(=O)N[C@@H](C)c2ccc(F)cc2F)c(=O)[nH]c2ccc(F)c(F)c12 (single isomer, unassigned) [compound 108]

Source: patent US12448369B2 (Edgewise Therapeutics, Inc., priority 2023, dated 2025)
